Measured values from patent US5814634A, “Alkylenediamine derivative anti-ulcer drug and antibacterial drug” (Shiseido Co. Ltd., priority 1996, dated 1998).

How the values were obtained:
stress ulcer = experiment: WIS: Restraint and Water Immersion Stress-Induced Ulcer Inhibition Test; format: in vivo, rat (male Crj:SD or Slc:SD); conditions: 100 mg/kg oral, rats, water immersion stress 7 hours
Procedure: WIS: Restraint and Water Immersion Stress-Induced Ulcer Inhibition Test
The degree of inhibition of the stress ulcer formation is tested.
Male Crj:SD or Slc:SD rats (6 to 7-week-old) were fasted overnight, but allowed free access to water. Each group has 5 to 8 of these rats. The sample compound was dissolved or suspended in an aqueous solution of 0.3% sodium carboxymethylcellulose or 0.05% Tween 80 and then was orally administered (100 mg/10 ml/kg). To a control group, the vehicle was administered. 10 minutes later, the rats were placed in a stress cage and immersed to the level of xipfoid process in a water bath (21° C.) for 7 hours. At the end of the stress, the rats were sacrificed by inhalation of ether or carbon dioxide. Then, the stomach of each was removed, inflated by injecting 10 ml of 5% formalin neutral buffer solution, and immersed in 1% formalin neutral buffer solution for 30 minutes or more to be fixed. The stomach was incised along the greater curvature and then the length of each erosion in the glandular portion was determined under dissecting microscope. The sum of the length of erosions per stomach was defined as ulcer index (UI).
(§1) The effect obtained when 100 mg/kg of the sample compound had been administered was expressed as ulcer formation inhibitory rate (%) as follows: [formula] VOL, TAO: Acid Secretion Inhibition Test In Vivo i) Meaning

gastric mucosa = experiment: PD: Gastric Mucosal Integrity Test (gastric mucosal potential difference); format: in vivo, rat (male Crj:SD); set-up: key: 5: Same as the control with no recognizable damage at all.; 4: Though a slight PD-decreasing tendency suggesting a slight possibility of mucosal damage is found, there is no problem.; 3: Though a weak decrease in PD and a possibility of a weak mucosal damage is recognized, there is no substantial problem.; 2: Medium degree of decrease in PD is found and a mucosal damage is recognized.; 1: Heavy degree of decrease in PD is found and a remarkable mucosal damage is recognized; conditions: 100 mg/kg into chamber, rats, 60 minutes
Procedure: PD: Gastric Mucosal Integrity Test
In this case, since the sample compound has a necrotizing effect, it is inappropriate as an anti-ulcer medicament.
Therefore, the gastric mucosal potential difference (PD), which reflects the integrity of the gastric mucosa, is measured so as to confirm that the sample compound has no damaging effect on gastric mucosa, which is toxicity at gastric mucosal level.
Male Crj:SD rats (7 to 8-week-old) were fasted overnight, but allowed free access to water, and then, under urethane anesthesia (1.25 g/kg, i.p.), fixed to a cork board on its back. The abdomen of each rat was incised, and a small incision was made in the forestomach. Then, the inside of the stomach was washed with physiological saline heated at 37° C. From the forestomach, along the greater curvature thereof, the stomach was incised without damaging blood vessels. After the height of the cork board was adjusted on a jack, the stomach was mounted on ex vivo chamber. The area of the gastric mucosa exposed to the inside of this chamber was 2.5 cm^2. The inside of the chamber was perfused with physiological saline warmed at 37° C. by micro tube pump. By using an agar bridge containing 3M KCl, the potential difference between the chamber and the abdominal cavity was measured by a PD meter. Here, the rectal temperature was measured to control the body temperature during the experiment. After the PD was sufficiently stabilized, the perfusate was stopped and then 100 mg/10 ml/kg of the sample compound dissolved or suspended in an aqueous solution of 0.5% sodium carboxymethyl cellulose or 0.05% Tween 80 was administered into the chamber, while PD was recorded for 60 minutes. To a control, the vehicle was administered.
The change in PD during 60 minutes after the administration of 100 mg/kg of the sample compound was collectively studied and, with reference to the positive control, classified into 5 levels as follows:
5: Same as the control with no recognizable damage at all.
3: Though a weak decrease in PD and a possibility of a weak mucosal damage is recognized, there is no substantial problem.
2: Medium degree of decrease in PD is found and a mucosal damage is recognized.
1: Heavy degree of decrease in PD is found and a remarkable mucosal damage is recognized.

[1] = test system: isolated gastric fundic gland; experiment: CAP: Acid Secretion Inhibition Test In Vitro ([14C]-aminopyrine uptake); format: cell-based, rabbit (male Japanese White); conditions: Oryctolagus cuniculus, 40 min; 10^-5 M compound, 10^-5 M histamine, rabbit isolated gastric fundic gland, 37° C., 40 minutes; read-out: CAP: acid secretion inhibitory rate
Procedure: (§2) With respect to the gastric juice volume (VOL) and the total acid output (TAO), the effects obtained when 100 mg/kg of the sample compound had been administered were expressed as their respective inhibitory rates (%) as follows: [formula] CAP: Acid Secretion Inhibition Test In Vitro i) Meaning
The acid secretion inhibitory activity in a cell level is studied. It can also be used for studying the mechanism of the effect.
ii-a) Preparation of isolated gastric fundus gland suspension
First, an isolated gastric fundic gland sample was prepared. […] Immediately thereafter, the stomach was removed and, after its pyloric and cardiac antrum were severed, incised along its greater curvature into two sheets. The gastric contents adhering to the mucosal surface was washed out with ice-cooled PBS (-) and then carefully washed therein. The gastric wall was spread on a cork board with its mucosal surface facing up and the feed and mucus thereon were completely removed with sterile gauze. The mucosa was separated therefrom by a spatula and then collected in ice-cooled PBS (-). After being washed twice with PBS (-), the mucosa was minced into 2-3 mm^3 pieces by scissors. These pieces were further washed twice with a nutrient solution. The nutrient solution comprises 132.4 mM of NaCl, 5.4 mM of KCl, 5 mM of Na2 HPO4.12H2 O, 1 mM of NaH2 PO4.2H2 O, 1.2 mM of MgSO4, 1 mM of CaCl2, 25 mM of HEPES, 2 mg/ml of glucose, and 1 mg/ml of BSA. Into 70 ml of the nutrient solution containing 1 mg/ml of collagenase, minced mucosal pieces were dispersed and intensely stirred in a conical flask with a stirrer at 37° C. for 40 to 60 minutes. During this period, 100% O2 was sprayed on the nutrient solution surface and the pH was appropriately measured such that it was immediately adjusted to pH 7.4, when the value was therebelow, with a base. The nutrient solution was added to the reaction solution so as to attain the total amount of about 200 ml. After being filtered through a mesh, the suspension was divisionally introduced into 50 ml centrifuge tubes and left for 15 minutes such that gastric fundic gland was deposited. The supernatant was repeatedly removed by an aspirator, dispersed in the nutrient solution, and then left such that the gastric fundic gland was washed three times. At this time, without using a pipette, the suspension was alternately introduced into two centrifuge tubes so as to effect dispersion. The number of cells was counted under microscope and adjusted to 1.6×10^6 cells/ml.
ii-b) [^14 C]-aminopyrine uptake test
Then, [^14 C]-aminopyrine uptake test was performed. After an Eppendorf tube was weighed, 10 μl (final concentration: 10^-5 M) of histamine dissolved in the above-mentioned nutrient solution, 10 μl (final concentration: 10^-5 M) of the test compound dissolved in DMSO, and 10 μl (final concentration: 0.05 μCi/ml) of [^14 C]-aminopyrine diluted with the nutrient solution were introduced therein and then 970 μl of the isolated gastric fundic gland suspension prepared above was added thereto. Subsequently, this mixture was shaken at 37° C. for 40 minutes at 125 cycles/minute. After being centrifuged for 30 minutes, 200 μl of its supernatant was collected into a mini-vial, while the rest was removed by an aspirator. The gland pellet was completely dried as the tube with its lid being opened was kept for one night in a drying oven at 80° C. and then the lid was closed and the weight was determined at room temperature. Then 100 μl of 1N KOH was added thereto and the tube with its lid being closed was treated at 60° C. for 1 to 2 hours so as to dissolve the pellet. Then, the contents thereof were transferred to a mini-vial. Into the mini-vial containing the supernatant or gland pellet, 4 ml of Atomlite™ was added and then the radioactivity was measured by a liquid scintillation counter. […]

Male Slc:ICR mice = test system: Male Slc:ICR mice; set-up: species or system mouse (male Slc:ICR); conditions: mouse, in vivo
Procedure: AT: Single Dose Toxicity Pretest
Male Slc:ICR mice (5-week-old) were used. Each group has 3 to 5 mice and each mouse was fasted, but allowed free access to water, for 4 to 5 hours from 9 a.m. in the test day. Then, 2,000 mg/10 ml/kg of the sample compound dissolved or suspended in an aqueous solution of 0.5% sodium carboxymethyl cellulose was orally administered thereto. To a control, only the vehicle was administered. […] The body weight was measured before and after the fasting as well as at the same time everyday. The dead animals were immediately subjected to autopsy and their organs were observed microscopically. Also, the living animals were sacrificed with ether or carbon dioxide one week after the administration and then their organs were observed microscopically.
The toxicity at the single dose of 2,000 mg/kg of the sample compound was expressed as being classified into 5 levels.
5: Mortality rate is 0%; no toxicity is found at all both in behavior and organs.
4: Mortality rate is 0%; while no toxicity is found in organs, slight toxicity is observed in behavior and body weight increase.
3: While there is a dead animal (though not all the animals are dead), no toxicity is found in organs.
2: Regardless of whether there is a dead animal or not, toxicity is found in organs.
1: All the animals are dead.

in vitro = conditions: rabbit, gastric mucosal cells
acid secretion in vivo = experiment: VOL, TAO: Acid Secretion Inhibition Test In Vivo; set-up: species or system rat (male Crj:Donryu); conditions: 100 mg/kg oral, pylorus-ligated rats, histamine 30 mg/kg s.c.
Procedure: as §1
Inhibitory effect on acid secretion in vivo is confirmed.
Male Crj:Donryu rats (7-week-old) were fasted overnight but allowed free access to water. In each group, 8 to 10 of these rats were used under urethane anesthesia (1.25 g/kg). The sample compound dissolved or suspended in an aqueous solution of 0.5% sodium carboxymethylcellulose or 0.05% Tween 80 was orally administered (100 mg/10 ml/kg). 30 minutes later, the abdomen of each was incised and the pylorus was ligated. 30 minutes after the ligation, 30 mg/kg of histamine dissolved in physiological saline was subcutaneously administered and, 3 hours thereafter, the rat was sacrificed with carbon dioxide. Immediately thereafter, each stomach was removed and the gastric contents were collected and each volume was determined. The total acid output was determined by titration of the gastric juice with 0.1N NaOH.
as §2

Row | SMILES | WIS: ulcer formation inhibitory rate (stress ulcer) [%] | PD: change in gastric mucosal potential difference, 5 levels (gastric mucosa) | inhibition at 10 µM [1] [%] | AT: toxicity at single dose, 5 levels (Male Slc:ICR mice) | cytotoxicity at 4 h, 100 µM (in vitro) [%] | TAO: total acid output inhibitory rate (acid secretion in vivo) [%] | VOL: gastric juice volume inhibitory rate (acid secretion in vivo) [%]
1 | CC(C)=CCC/C(C)=C/CC/C(C)=C/COc1ccc(C(=O)NCCN2CCCCC2)cc1 [Example 10] | 47 | 5 | 98 | 4 |  |  | 
2 | CC(C)=CCC/C(C)=C/COc1ccc(C(=O)NCCN2CCCCC2)cc1OC/C=C(\C)CCC=C(C)C [Example 11] | 91 | 5 |  | 4 | 23 |  | 
3 | CC(C)=CCC/C(C)=C/COc1ccc(OC/C=C(\C)CCC=C(C)C)c(C(=O)NCCN2CCCCC2)c1 [Example 13] | 67 |  | 100 | 5 | -5 |  | 
4 | CC(C)=CCOc1ccc(OCC=C(C)C)c(C(=O)NCCN2CCCCC2)c1 [Example 17] | 70 |  | 100 | 3 | -16 |  | 
5 | COc1cc(C(=O)NCCN2CCCCC2)cc(OC)c1OCC=C(C)C [Example 27] | 82 | 5 |  |  | -11 |  | 
6 | CC(C)=CCC/C(C)=C/COc1cccc(C(=O)NCCN2CCOCC2)c1 [Example 29] | 63 |  | 99 | 5 | 16 |  | 
7 | CC(C)=CCC/C(C)=C/CC/C(C)=C/COc1ccc(C(=O)NCCN2CCOCC2)cc1 [Example 32] | 55 |  | 99 | 5 | 58 |  | 
8 | COc1cc(C(=O)NCCN2CCOCC2)cc(OC)c1OC/C=C(\C)CCC=C(C)C [Example 42] | 69 |  | 102 | 4 | 0 |  | 
9 | COc1cc(C(=O)NCCN2CCOCC2)cc(OC)c1OC/C=C(/C)CCC=C(C)C [Example 43] | 41 | 5 |  | 4 | 10 |  | 
10 | COc1cc(C(=O)NCCN2CCOCC2)cc(OC/C=C(\C)CCC=C(C)C)c1OC [Example 44] | 61 |  | 100 | 4 | 22 |  | 
11 | CC(C)=CCC/C(C)=C/COc1ccc(C(=O)NCCN2CCN(CC(C)C)CC2)cc1 [Example 46] | 78 |  | 100 |  | 68 | 34 | 33
